Results from patent publication US9827229B2, “Small molecule securinine and norsecurinine analogs and their use in cancers, inflammatory diseases and infections” (INVENIO THERAPEUTICS INC., priority 2013, dated 2017).
Read-outs that look alike come from different tables or passages of the source.

What was measured:
[1] = tested on: HL60 cells; assay: Differentiation of HL60 cells (Dif50); format: cell-based, human; conditions: for EC50: no unit in head or cell (other cells of the column print uM)
Source text: The tested compounds and their respective results are produced in Table 1. Those skilled in the art will appreciate that combining the securinine and/or norsecurinine analogs with other differentiation inducing agents, such as all-trans retinoic acid, cytarabine and/or an anthracycline, would be of further benefit. Those skilled in the art will appreciate that inducing differentiation may further reduce oxidative damage due to lower presence of radical inducing enzymes (see, e.g., Yamada et al. J Biol Chem 259(5)3021-3025 (1984) and Weil et al., PNAS 84:2057-2061 (1987)).
(§1) The analogs were then tested and evaluated on the ability to affect differentiation and growth of HL60 cells.

[2] = tested on: HCT116 P53+/+; assay: Growth inhibition of colon cancer HCT116 P53+/+; format: cell-based
Source text: (§2) The analogs were then further tested for inhibiting growth against various cancer cell lines: AML (Mol3, OCI), Colon cancer (HCT116) and Ovary cancer (SKOV3). IC50 are documented in Table 2.

[3] = tested on: SKOV3 P53−/−; assay: Growth inhibition of ovary cancer SKOV3 P53−/−; format: cell-based
Source text: as §2

[4] = tested on: SKOV3 P53+/+; assay: Growth inhibition of ovary cancer SKOV3 P53+/+; format: cell-based
Source text: as §2

[5] = tested on: MOL3; assay: Growth inhibition of AML cell line MOL3; format: cell-based, human
Source text: as §2

[6] = tested on: OCI; assay: Growth inhibition of AML cell line OCI; format: cell-based, human
Source text: as §2

[7] = tested on: HCT116 P53−/−; assay: Growth inhibition of colon cancer HCT116 P53−/−; format: cell-based
Source text: as §2

[8] = tested on: HL60 cells; assay: Growth of HL60 cells (IC50); format: cell-based, human; conditions: for IC50: growth, no unit in head or cell (other cells of the column print uM), read-out: HL-60, IC50
Method: as §1

[9] = read-out: HL-60, Dif50, HL-60 cells, differentiation
[10] = Homo sapiens, HCT-116, colon cancer HCT116 P53+/+
[11] = Homo sapiens, SK-OV-3, ovary cancer SKOV3 P53−/−
[12] = Homo sapiens, SK-OV-3, ovary cancer SKOV3 P53+/+
[13] = Homo sapiens, HCT-116, colon cancer HCT116 P53−/−
[14] = Homo sapiens, HL-60, HL-60 cells, differentiation, read-out: HL-60, Dif50

| SMILES | IC50 [2, 10] | IC50 [3, 11] | IC50 [4, 12] | IC50 ([5]; Homo sapiens) | IC50 ([6]; Homo sapiens) | IC50 [7, 13] | also measured |
| --- | --- | --- | --- | --- | --- | --- | --- |
| O=C1O[C@]23CC4OC4[C@H](ON4CCCC[C@@H]42)C32OC12 (some centres unmarked) [INVS-MG-77-aq] | – | – | – | – | – | – | EC50 [1, 9]: > 30 µM |
| O=C1C=C2C(I)=C[C@@H]3C[C@@]2(O1)[C@H]1CCCCN31 [INVS-MG-82-II] | 1400 nM | 3100 nM | 1600 nM | 90 nM | 100 nM | 1100 nM | – |
| COc1ccc(CN[C@@H]2CC3=CC(=O)O[C@@]34C[C@@H]2N2CCCC[C@@H]24)cc1 [INVS-MG-86C] | – | – | – | – | – | – | EC50 [1, 14]: > 30 µM |
| O=C1C=C2C=C[C@@H]3C[C@@]2(O1)[C@H]1CCCCN31 [INVS-MG-94-aq] | – | – | – | – | – | – | EC50 [1, 9]: > 30 µM |
| CO[C@H]1CC2=CC(=O)O[C@@]23C[C@@H]1N1CCCC[C@@H]13 [INVS-MG-97-IIB] | – | – | – | – | – | – | EC50 ([1]; Homo sapiens, HL-60, read-out: HL-60, Dif50, HL-60 cells, differentiation): > 30 µM |
| NC1CC2=CC(=O)O[C@@]23C[C@@H]1N1CCCC[C@@H]13 (some centres unmarked) [INVS-MG-97-IIE] | – | – | – | – | – | – | EC50 [1, 14]: 20 to 30 µM |
| O=C1C=C2C[C@H](NCCc3cc4ccccc4[nH]3)[C@@H]3C[C@@]2(O1)[C@H]1CCCCN31 [INVS-MG-98B] | – | – | – | – | – | – | EC50 [1, 14]: 10 to 15 µM |
| O=C1C=C2C(C#Cc3ccccc3)=C[C@@H]3C[C@@]2(O1)[C@H]1CCCCN31 [INVS-MG-110B] | 1900 nM | 3000 nM | 2100 nM | 70 nM | 80 nM | 2300 nM | – |
| CN(C)CC#CC1=C[C@@H]2C[C@@]3(OC(=O)C=C13)[C@H]1CCCCN21 [INVS-MG-111B] | 1100 nM | 2800 nM | 1800 nM | 70 nM | 90 nM | 1500 nM | – |
| CCOC#CC1=C[C@@H]2C[C@@]3(OC(=O)C=C13)[C@H]1CCCCN21 [INVS-MG-120A] | 1600 nM | 2600 nM | 1900 nM | – | – | 2100 nM | – |
| N#CCCCC#C/C(=C\C1=C[C@@H]2C[C@@]3(OC(=O)C=C13)[C@H]1CCCCN21)CCCC#N [INVS-MG-125-IIB] | – | – | – | – | – | – | HL-60, Dif50/IC50 column: second value of 'x/y at 10 uM' (growth) ([8]; HL-60 cells, at 10 uM): 35; HL-60, Dif50/IC50 column: first value of 'x/y at 10 uM' (differentiation) ([1]; HL-60 cells, at 10 uM): 40 |
| N#CCCCC#CC1=C[C@@H]2C[C@@]3(OC(=O)C=C13)[C@H]1CCCCN21 [INVS-MG-125A] | 1300 nM | 2400 nM | 1300 nM | – | – | 2000 nM | – |
| C=C(C)CC#CC1=C[C@@H]2C[C@@]3(OC(=O)C=C13)[C@H]1CCCCN21 [INVS-MG-132A] | 2400 nM | 3800 nM | 2400 nM | – | 200 nM | 2200 nM | – |
| COc1ccc(C#CC2=C[C@@H]3C[C@@]4(OC(=O)C=C24)[C@H]2CCCCN32)cc1 [INVS-MG-134C] | 1000 nM | 2800 nM | 1200 nM | 60 nM | 80 nM | 1100 nM | – |
| O=C1C=C2C(C#Cc3ccsc3)=C[C@@H]3C[C@@]2(O1)[C@H]1CCCCN31 [INVS-MG-136-III] | – | – | – | – | – | – | IC50 ([8]; HL-60 cells): < 0.07 µM; IC50 ([2]; colon cancer HCT116 P53+/+): 1800 nM; IC50 ([3]; ovary cancer SKOV3 P53−/−): 1100 nM; IC50 ([4]; ovary cancer SKOV3 P53+/+): 700 nM; IC50 [5]: 100 nM; IC50 [6]: 115 nM; IC50 ([7]; colon cancer HCT116 P53−/−): 2200 nM |
| O=C1C=C2C(C#Cc3ccsc3)=C[C@@H]3C[C@@]2(O1)[C@H]1CCCCN31 [INVS-MG-136B] | 2200 nM | – | – | 60 nM | – | 2100 nM | IC50 ([3]; ovary cancer SKOV3 P53−/−): 2900 nM; IC50 ([4]; ovary cancer SKOV3 P53+/+): 2800 nM |
| CCN(CC)CC#CC1=C[C@@H]2C[C@@]3(OC(=O)C=C13)[C@H]1CCCCN21 [INVS-MG-145A] | 1100 nM | 1200 nM | 800 nM | – | – | 2100 nM | – |
| CN(C)c1ccc(C#CC2=C[C@@H]3C[C@@]4(OC(=O)C=C24)[C@H]2CCCCN32)cc1 [INVS-MG-146B] | 800 nM | 800 nM | 700 nM | – | – | 1800 nM | – |
| CCCN(CC#CC1=C[C@@H]2C[C@@]3(OC(=O)C=C13)[C@H]1CCCCN21)CCC [INVS-MG-152A] | 900 nM | 700 nM | < 600 nM | 80 nM | 70 nM | 1900 nM | – |
| COc1ccc2cc(C#CC3=C[C@@H]4C[C@@]5(OC(=O)C=C35)[C@H]3CCCCN43)ccc2c1 [INVS-MG-157B] | 700 nM | 700 nM | < 600 nM | 90 nM | – | 900 nM | IC50 ([8]; Homo sapiens, HL-60, HL-60 cells): 0.07 to 0.156 µM |
